The Emax is the maximal effect, on the per cent scale that the assay sets. In general, EC50 refers to the midpoint of the concentration-response curve. Usually pEC50 stands for the negative decadic logarithm of the EC50, by convention in mol/L.

The source of these data is ChEMBL document CHEMBL2401678, “Synthesis and changes in affinity for NOP and opioid receptors of novel hexapeptides containing β(2)-tryptophan analogues” (Bioorg Med Chem Lett, 2013).

For test [1], the target named is Nociceptin receptor (Rattus norvegicus) (UniProt P35370). Kind of test: Activity at Wistar rat NOP receptor assessed as inhibition of low-frequency electrically-stimulated vas deferens contraction at 1 x 10^-6 M relative to control.
Chain of Nociceptin receptor (Rattus norvegicus) (P35370 whole entry): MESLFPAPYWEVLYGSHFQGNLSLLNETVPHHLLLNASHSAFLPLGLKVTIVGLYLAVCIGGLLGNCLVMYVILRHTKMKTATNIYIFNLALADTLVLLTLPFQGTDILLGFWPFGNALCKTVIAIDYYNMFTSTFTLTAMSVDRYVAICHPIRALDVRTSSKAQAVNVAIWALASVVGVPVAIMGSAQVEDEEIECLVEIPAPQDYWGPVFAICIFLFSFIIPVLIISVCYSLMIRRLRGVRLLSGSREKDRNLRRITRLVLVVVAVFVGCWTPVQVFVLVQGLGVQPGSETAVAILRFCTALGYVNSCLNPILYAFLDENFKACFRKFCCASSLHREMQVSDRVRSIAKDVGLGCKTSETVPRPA
Test [2] has as its target Mu-type opioid receptor (Rattus norvegicus) (UniProt P33535). Kind of test: Activity at Wistar rat mu opioid receptor assessed as inhibition of low-frequency electrically-stimulated vas deferens contraction at 1 x 10^-5 M in presence of naloxone relative to control.
The target is the same in test [3]. Briefly: Activity at Wistar rat mu opioid receptor assessed as inhibition of low-frequency electrically-stimulated vas deferens contraction at 1 x 10^-11 to […] in presence of naloxone.
For test [4] the target is unchanged. Briefly: Activity at Wistar rat mu opioid receptor assessed as inhibition of low-frequency electrically-stimulated vas deferens contraction at 1 x 10^-5 M relative to control.
Test [5] deals with T1, Mu-type opioid receptor (Rattus norvegicus, UniProt P33535). Briefly: Activity at Wistar rat mu opioid receptor assessed as inhibition of low-frequency electrically-stimulated vas deferens contraction in presence of naloxone.
T1 sequence (P33535 whole entry): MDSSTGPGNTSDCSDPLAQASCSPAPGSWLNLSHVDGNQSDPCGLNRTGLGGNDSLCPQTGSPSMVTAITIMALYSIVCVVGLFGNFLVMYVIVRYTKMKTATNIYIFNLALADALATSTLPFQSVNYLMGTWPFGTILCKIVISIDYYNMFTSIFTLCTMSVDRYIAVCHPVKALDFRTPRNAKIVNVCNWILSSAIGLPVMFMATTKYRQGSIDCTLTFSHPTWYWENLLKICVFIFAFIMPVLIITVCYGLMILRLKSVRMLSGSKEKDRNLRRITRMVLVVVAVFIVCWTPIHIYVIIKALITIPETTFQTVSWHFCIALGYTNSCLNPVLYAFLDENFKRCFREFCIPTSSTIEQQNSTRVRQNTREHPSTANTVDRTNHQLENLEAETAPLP
In test [6] the target is T1, Mu-type opioid receptor. Briefly: Activity at Wistar rat mu opioid receptor assessed as inhibition of low-frequency electrically-stimulated vas deferens contraction.
The target of test [7] is Mu-type opioid receptor (Rattus norvegicus) (UniProt P33535). Briefly: Activity at Wistar rat mu opioid receptor assessed as inhibition of low-frequency electrically-stimulated vas deferens contraction at 1 x 10^-6 to 1 x 10^-5 M in presence of naloxone benzoylhydrazone.
Chain of Mu-type opioid receptor (Rattus norvegicus) (P33535 whole entry): as above
The target is the same in test [8]. Kind of test: Activity at Wistar rat mu opioid receptor assessed as inhibition of low-frequency electrically-stimulated vas deferens contraction up to 1 x 10^-5 M in presence of naloxone benzoylhydrazone.
Test [9] has as its target T2, Nociceptin/mu opioid receptor (Rattus norvegicus, UniProt P33535+P35370). Briefly: Activity at Wistar rat NOP/mu opioid receptor assessed as inhibition of low-frequency electrically-stimulated vas deferens contraction. Format: protein assay.
Test [10] has as its target T3, Nociceptin/mu opioid receptor (Rattus norvegicus) (UniProt P33535+P35370). Briefly: Activity at Wistar rat NOP/mu opioid receptor assessed as inhibition of low-frequency electrically-stimulated vas deferens contraction at 1 x 10^-5 M relative to control. Type of test: protein assay.
The target of test [11] is T3, Nociceptin/mu opioid receptor (Rattus norvegicus). Kind of test: Activity at Wistar rat NOP/mu opioid receptor assessed as inhibition of low-frequency electrically-stimulated vas deferens contraction at 1 x 10^-5 M in presence of naloxone relative to control. Format: protein assay.
Test [12] concerns the target T2, Nociceptin/mu opioid receptor. Kind of test: Activity at Wistar rat NOP/mu opioid receptor assessed as inhibition of low-frequency electrically-stimulated vas deferens contraction in presence of naloxone. Type of test: protein assay.
The target in test [13] is Mu-type opioid receptor (Rattus norvegicus) (UniProt P33535). Kind of test: Activity at Wistar rat mu opioid receptor assessed as inhibition of low-frequency electrically-stimulated vas deferens contraction at 1 x 10^-6 to 1 x 10^-5 M.
Test [14] deals with T3, Nociceptin/mu opioid receptor (Rattus norvegicus). Kind of test: Activity at Wistar rat NOP/mu opioid receptor assessed as inhibition of low-frequency electrically-stimulated vas deferens contraction at 1 x 10^-5 M in presence of naloxone benzoylhydrazone. Type of test: protein assay.
The target is the same in test [15]. Kind of test: Activity at Wistar rat NOP/mu opioid receptor assessed as inhibition of low-frequency electrically-stimulated vas deferens contraction at 1 x 10^-5 M in presence of naloxone. Format: protein assay.
The target in test [16] is Nociceptin receptor (Rattus norvegicus) (UniProt P35370). Kind of test: Activity at Wistar rat NOP receptor assessed as inhibition of low-frequency electrically-stimulated vas deferens contraction at 1 x 10^-11 to 1 x 10^-5 M in presence of naloxone.
Test [17] deals with T4, Nociceptin receptor (Rattus norvegicus, UniProt P35370). Kind of test: Activity at Wistar rat NOP receptor assessed as inhibition of low-frequency electrically-stimulated vas deferens contraction.
T4 sequence (P35370 whole entry): as the sequence (P35370 whole entry) above
Test [18] has as its target T4, Nociceptin receptor. Briefly: Activity at Wistar rat NOP receptor assessed as inhibition of low-frequency electrically-stimulated vas deferens contraction in presence of naloxone.
The target of test [19] is Nociceptin receptor (Rattus norvegicus) (UniProt P35370). Kind of test: Activity at Wistar rat NOP receptor assessed as inhibition of low-frequency electrically-stimulated vas deferens contraction at 1 x 10^-6 M in presence of naloxone relative to control.
Test [20] shares this target. Kind of test: Activity at Wistar rat NOP receptor assessed as inhibition of low-frequency electrically-stimulated vas deferens contraction at 1 x 10^-6 M in presence of naloxone benzoylhydrazone.

The source made the active and inactive calls. The rule behind the calls is not given here. *1 amine or outer side, *2 acyl side, *3 side chain or, on linkers, in order; H or OH if unused. Where a SMILES comes first, the peptide text is derived from it. [ ]: non-standard residue; d: D form. X2 = COc1ccc2[nH]cc([C@H](CN[*:1])C(=O)[*:2])c2c1; X1 = Cn1cc([C@H](CN[*:1])C(=O)[*:2])c2ccccc21

T3 sequence (P33535 whole entry, looked up): as the sequence (P33535 whole entry) above
T3 sequence (P35370 whole entry, looked up): as the sequence (P35370 whole entry) above

Regarding `C[C@H](NC(=O)CNC(=O)[C@@H](NC(=O)[C@H](Cc1ccccc1)NC(=O)CNC(=O)CNC(=O)[C@@H](N)Cc1ccccc1)[C@@H](C)O)C(=O)N[C@@H](CCCNC(=N)N)C(=O)N[C@@H](CCCCN)C(=O)N[C@@H](CO)C(=O)N[C@@H](C)C(=O)N[C@@H](CCCNC(=N)N)C(=O)N[C@@H](CCCCN)C(N)=O`, in test [1], the Emax is -73%.

With `CSCC[C@H](NC(=O)[C@H](Cc1ccccc1)NC(=O)[C@H](CCCNC(=N)N)NC(C)=O)C(=O)NC[C@H](C(=O)N[C@@H](CCSC)C(=O)N[C@@H](CCCCN)C(N)=O)c1cn(C)c2ccccc12` (Ac-RFM[X1]MK-NH2), the Emax was -15% in test [2] and -50% in test [4]. For the same compound, the inhibition entry in [3] and in test [7] was “inactive” throughout. The EC50 in [5] is 1620 nM; in test [6], 1230 nM.

For `COc1ccc2[nH]cc([C@H](CNC(=O)[C@H](CCSC)NC(=O)[C@H](Cc3ccccc3)NC(=O)[C@H](CCCNC(=N)N)NC(C)=O)C(=O)N[C@@H](CCSC)C(=O)N[C@@H](CCCCN)C(N)=O)c2c1` (Ac-RFM[X2]MK-NH2), the inhibition result in test [8] is “inactive”. Moreover, the pEC50 in [9] is listed as 5.78; in [12] it was 6.26. For the same compound, the Emax was -34% in [10] and -14% in [11]. Further, the inhibition entry in [13] was “Active”.

For the compound `CC(=O)N[C@@H](CCCNC(=N)N)C(=O)N[C@@H](Cc1ccc(O)cc1)C(=O)N[C@@H](Cc1ccc(O)cc1)C(=O)N[C@@H](CCCNC(=N)N)C(=O)NC[C@H](C(=O)N[C@@H](CCCCN)C(N)=O)c1cn(C)c2ccccc12` (Ac-RYYR[X1]K-NH2), the pEC50 in [9] was found to be 6.5; in test [12], 6.21. For the same compound, the inhibition entry in [14] is “inactive”. Further, the Emax was -36% in test [10] and -17% in [11]. Further, the inhibition entry in test [15] was “Active”.

For `COc1ccc2[nH]cc([C@H](CNC(=O)[C@H](CCCNC(=N)N)NC(=O)[C@H](Cc3ccc(O)cc3)NC(=O)[C@H](Cc3ccc(O)cc3)NC(=O)[C@H](CCCNC(=N)N)NC(C)=O)C(=O)N[C@@H](CCCCN)C(N)=O)c2c1` (Ac-RYYR[X2]K-NH2), the Emax in [1] was -52%; in test [19], -12%. The inhibition result in test [16] is “inactive”. The concentration for a half-maximal effect (EC50) in [17] is 1410 nM; in [18] it was 1660 nM.

As to Ac-RFMWMK-NH2, the Emax in test [2] is -14%; in test [4] it was -52%. The inhibition result in [3] and in [7] was “inactive” throughout. For the same compound, the EC50 was 1150 nM in [5] and 1020 nM in test [6].

Ac-RYYRWK-NH2: the Emax in test [1] was -36%; in [19], -31%. Also, the EC50 in test [17] was 15.8 nM; in test [18], 6.17 nM. For the same compound, the inhibition entry in [20] is “inactive”.
